Experimental data: ChEMBL document CHEMBL1138961, “Highly selective and potent agonists of sphingosine-1-phosphate 1 (S1P1) receptor” (Bioorg Med Chem Lett, 2006)
pEC50: −log10 of the molar value.

How the values were obtained:
[1] = species on record: Homo sapiens; assay: Selectivity for S1P1 receptor over S1P4 receptor
[2] = target: Sphingosine 1-phosphate receptor 1 (Homo sapiens, UniProt P21453); assay: Agonist activity at S1P1 receptor assessed as induction of [35S]GTP-gamma-S binding; format: functional
[3] = species on record: Homo sapiens; assay: Selectivity for S1P1 receptor over S1P2 receptor
[4] = species on record: Homo sapiens; assay: Selectivity for S1P1 receptor over S1P5 receptor
[5] = target: T1, Sphingosine 1-phosphate receptor 3 (Homo sapiens, UniProt Q99500); assay: Agonist activity at S1P3 receptor assessed as induction of [35S]GTP-gamma-S binding; format: functional
[6] = target: Sphingosine 1-phosphate receptor 5 (Homo sapiens, UniProt Q9H228); assay: Agonist activity at S1P5 receptor assessed as induction of [35S]GTP-gamma-S binding; format: functional
[7] = target: T1, Sphingosine 1-phosphate receptor 3; assay: Inhibition of S1P3 receptor at 10 uM

Sphingosine 1-phosphate receptor 5, sequence (Q9H228 whole entry): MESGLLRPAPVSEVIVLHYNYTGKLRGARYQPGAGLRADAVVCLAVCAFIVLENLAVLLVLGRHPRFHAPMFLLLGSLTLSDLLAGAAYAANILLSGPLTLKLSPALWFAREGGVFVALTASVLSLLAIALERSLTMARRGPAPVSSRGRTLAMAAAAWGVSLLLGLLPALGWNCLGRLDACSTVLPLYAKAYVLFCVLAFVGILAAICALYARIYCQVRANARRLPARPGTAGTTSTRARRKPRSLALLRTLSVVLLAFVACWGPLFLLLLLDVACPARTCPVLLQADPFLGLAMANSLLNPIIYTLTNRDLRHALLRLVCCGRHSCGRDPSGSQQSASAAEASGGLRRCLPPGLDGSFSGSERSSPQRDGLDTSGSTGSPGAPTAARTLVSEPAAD
T1 sequence (Q99500 whole entry): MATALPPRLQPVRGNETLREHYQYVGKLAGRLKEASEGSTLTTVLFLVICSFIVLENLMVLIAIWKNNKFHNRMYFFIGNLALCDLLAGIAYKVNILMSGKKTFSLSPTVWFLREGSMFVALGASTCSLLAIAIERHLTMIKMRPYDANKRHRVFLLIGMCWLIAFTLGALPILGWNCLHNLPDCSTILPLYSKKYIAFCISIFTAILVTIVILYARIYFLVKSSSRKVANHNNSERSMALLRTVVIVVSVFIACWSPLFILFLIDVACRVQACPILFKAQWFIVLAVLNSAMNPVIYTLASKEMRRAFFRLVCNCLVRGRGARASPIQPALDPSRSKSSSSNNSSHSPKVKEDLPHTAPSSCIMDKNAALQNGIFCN
Sphingosine 1-phosphate receptor 1, sequence (P21453 whole entry): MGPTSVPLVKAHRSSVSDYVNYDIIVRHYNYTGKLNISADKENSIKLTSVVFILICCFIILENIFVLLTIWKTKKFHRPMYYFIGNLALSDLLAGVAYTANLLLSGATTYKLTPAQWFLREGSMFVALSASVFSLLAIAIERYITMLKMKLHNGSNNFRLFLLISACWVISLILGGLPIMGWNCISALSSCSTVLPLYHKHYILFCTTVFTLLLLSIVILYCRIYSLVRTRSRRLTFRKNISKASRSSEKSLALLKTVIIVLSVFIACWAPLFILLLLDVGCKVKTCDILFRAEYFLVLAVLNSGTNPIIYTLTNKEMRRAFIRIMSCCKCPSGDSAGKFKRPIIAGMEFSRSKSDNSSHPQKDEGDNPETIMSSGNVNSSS

SMILES	Selectivity ratio [1]	pEC50 [2]	Selectivity ratio [3]	Selectivity ratio [4]	pEC50 [5]	pEC50 [6]	inhibition [7]
Cc1cc(CCC(=O)O)ccc1-c1nnc(-c2ccc(OCC(F)F)c(C#N)c2)s1	> 1000	8.96	> 1000	230	–	–	–
Cc1cc(CCC(=O)O)ccc1-c1cc(-c2ccc(OC(C)C)c(C#N)c2)cs1	> 1000	6.54	> 1000	–	< 5.00	5.49	–
Cc1cc(CCC(=O)O)ccc1-c1cnc(-c2ccc(OC(C)C)c(C#N)c2)s1	> 1000	7.85	> 1000	–	< 5.00	6.70	–
Cc1cc(CCC(=O)O)ccc1-c1nnc(-c2ccc(OCCC(F)(F)F)c(C#N)c2)s1	> 1000	8.11	> 1000	30	–	–	–
Cc1cc(CCC(=O)O)ccc1-c1nnc(-c2ccc(OC(C(F)(F)F)C(F)(F)F)c(C#N)c2)s1	> 1000	7.42	> 1000	2	–	–	–
CCOc1ccc(-c2nnc(-c3ccc(CCC(=O)O)cc3C)s2)cc1C#N	> 1000	8.68	> 1000	480	–	–	–
Cc1cc(CCC(=O)O)ccc1-c1nnc(-c2ccc(OC(C)C)c(C#N)c2)o1	> 1000	8.96	> 1000	–	< 5.00	6.34	–
Cc1cc(CCC(=O)O)ccc1-c1nnc(-c2ccc(OCC(F)(F)F)c(C#N)c2)s1	> 1000	9.22	> 1000	400	–	–	–
Cc1cc(CCC(=O)O)ccc1-c1nnc(-c2ccc(-c3cccs3)c(C#N)c2)s1	> 1000	8.72	> 1000	110	–	–	–
Cc1cc(CCC(=O)O)ccc1-c1ccc(-c2ccc(OC(C)C)c(C#N)c2)s1	> 1000	9.03	> 1000	–	< 5.00	6.66	–
Cc1cc(CCC(=O)O)ccc1-c1noc(-c2ccc(OC(C)C)c(C#N)c2)n1	> 1000	10.00	> 1000	–	6.96	7.89	–
Cc1cc(CCC(=O)O)ccc1-c1nnc(-c2ccc(OC(CF)CF)c(C#N)c2)s1	> 1000	9.64	> 1000	390	–	–	–
Cc1cc(CCC(=O)O)ccc1-c1nnc(-c2ccc(OCC#N)c(C#N)c2)s1	> 1000	7.35	> 1000	220	–	–	–
Cc1cc(CCC(=O)O)ccc1-c1nnc(-c2ccc(OC(C)C)c(C#N)c2)[nH]1	–	6.42	–	–	< 5.00	< 5.00	–
Cc1cc(CCC(=O)O)ccc1-n1nnc(-c2ccc(OC(C)C)c(C#N)c2)n1	> 1000	9.01	> 1000	–	< 5.00	6.82	–
Cc1cc(CCC(=O)O)ccc1-c1noc(-c2cnc(OC(C)C)c(Cl)c2)n1	> 1000	9.14	> 1000	–	6.02	6.02	–
Cc1cc(CCC(=O)O)ccc1-c1ccc(-c2ccc(OC(C)C)c(C#N)c2)n1C	> 1000	< 5.00	> 1000	–	< 5.00	< 5.00	–
Cc1cc(CCC(=O)O)ccc1-c1nc(-c2ccc(OC(C)C)c(C#N)c2)n[nH]1	> 1000	–	> 1000	–	–	–	–
Cc1cc(CCC(=O)O)ccc1-c1nnc(-c2ccc(CC(C)C)c(C#N)c2)s1	> 1000	9.80	> 1000	320	–	–	–
CC(=O)Oc1ccc(-c2nnc(-c3ccc(CCC(=O)O)cc3C)s2)cc1C#N	> 1000	7.03	> 1000	110	–	–	–

SMILES	Selectivity ratio [1]	pEC50 [2]	Selectivity ratio [3]	Selectivity ratio [4]	pEC50 [5]	pEC50 [6]	inhibition [7]
CCC(C)Oc1ccc(-c2nnc(-c3ccc(CCC(=O)O)cc3C)s2)cc1C#N (stereo not drawn)	> 1000	9.55	> 1000	120	–	–	–
Cc1cc(CCC(=O)O)ccc1-c1nnc(-c2ccc(OCCF)c(C#N)c2)s1	> 1000	8.02	> 1000	> 100	–	–	–
Cc1cc(CCC(=O)O)ccc1-c1csc(-c2ccc(OC(C)C)c(C#N)c2)c1	> 1000	5.92	> 1000	–	< 5.00	5.49	–
Cc1cc(CCC(=O)O)ccc1-c1nnn(-c2ccc(OC(C)C)c(C#N)c2)n1	> 1000	8.80	> 1000	–	< 5.00	7.37	–
Cc1cc(CCC(=O)O)ccc1-c1nnc(-c2ccc(F)c(C#N)c2)s1	> 1000	6.24	> 1000	18	–	–	–
Cc1cc(CCC(=O)O)ccc1-c1nnc(-c2cccc(C#N)c2)s1	> 1000	< 6.00	> 1000	–	–	–	–
Cc1cc(CCC(=O)O)ccc1-c1nnc(-c2ccc(OC(C)C)c(C#N)c2)n1C	> 1000	< 5.00	> 1000	–	< 5.00	< 5.00	–
Cc1cc(CCC(=O)O)ccc1-c1ncc(-c2ccc(OC(C)C)c(C#N)c2)o1	> 1000	8.29	> 1000	–	< 5.00	< 5.00	–
Cc1cc(CCC(=O)O)ccc1-c1nnc(-c2ccc(OC(C)C)c(C#N)c2)s1	> 1000	9.70	> 1000	210	–	–	–
Cc1cc(CCC(=O)O)ccc1-c1nc(C)c(-c2ccc(OC(C)C)c(C#N)c2)s1	> 1000	< 5.44	> 1000	–	< 5.00	< 5.00	–
Cc1cc(CCC(=O)O)ccc1-c1nnc(-c2ccc(OCC(C)C)c(C#N)c2)s1	> 1000	8.55	> 1000	200	–	–	–
Cc1cc(CCC(=O)O)ccc1-c1nnc(-c2ccc(OC3CCC3)c(C#N)c2)s1	> 1000	9.10	> 1000	170	–	–	–
Cc1cc(CCC(=O)O)ccc1-c1noc(-c2ccc(OC(C)C)c(Cl)c2)n1	> 1000	9.82	> 1000	–	6.03	7.14	–
COc1ccc(-c2nnc(-c3ccc(CCC(=O)O)cc3C)s2)cc1C#N	> 1000	7.01	> 1000	> 100	–	–	–
Cc1cc(CCC(=O)O)ccc1-c1nnc(-c2ccc(OCC3CC3)c(C#N)c2)s1	> 1000	9.21	> 1000	230	–	–	–
Cc1cc(CCC(=O)O)ccc1-c1nnc(-c2cnc(OC(C)C)c(Cl)c2)s1	> 1000	8.68	> 1000	–	–	5.89	36%
Cc1cc(CCC(=O)O)ccc1-c1ccc(-c2ccc(OC(C)C)c(C#N)c2)o1	> 1000	< 5.00	> 1000	–	< 5.00	< 5.00	–
Cc1cc(CCC(=O)O)ccc1-c1nnc(-c2ccc(OCC(=O)O)c(C#N)c2)s1	> 1000	6.44	> 1000	28	–	–	–
CCCOc1ccc(-c2nnc(-c3ccc(CCC(=O)O)cc3C)s2)cc1C#N	> 1000	8.47	> 1000	110	–	–	–
